Key:
Histone deacetylase 1 = Histone deacetylase 1 (Homo sapiens, UniProt Q13547); assay: Inhibition of recombinant full-length human HDAC1 using FITC-H3K27(Ac)-NH2 as substrate by electrophoretic mobility shift assay
Histone deacetylase 2 = Histone deacetylase 2 (Homo sapiens, UniProt Q92769); assay: Inhibition of recombinant full-length human HDAC2 using FITC-H3K27(Ac)-NH2 as substrate by electrophoretic mobility shift assay
[1] = target: T1, Protein deacetylase HDAC6 (Homo sapiens, UniProt Q9UBN7); assay: Inhibition of recombinant full-length human HDAC6 using FAM-RHKK(Ac)-NH2 as substrate by electrophoretic mobility shift assay
T1 sequence (Q9UBN7 whole entry): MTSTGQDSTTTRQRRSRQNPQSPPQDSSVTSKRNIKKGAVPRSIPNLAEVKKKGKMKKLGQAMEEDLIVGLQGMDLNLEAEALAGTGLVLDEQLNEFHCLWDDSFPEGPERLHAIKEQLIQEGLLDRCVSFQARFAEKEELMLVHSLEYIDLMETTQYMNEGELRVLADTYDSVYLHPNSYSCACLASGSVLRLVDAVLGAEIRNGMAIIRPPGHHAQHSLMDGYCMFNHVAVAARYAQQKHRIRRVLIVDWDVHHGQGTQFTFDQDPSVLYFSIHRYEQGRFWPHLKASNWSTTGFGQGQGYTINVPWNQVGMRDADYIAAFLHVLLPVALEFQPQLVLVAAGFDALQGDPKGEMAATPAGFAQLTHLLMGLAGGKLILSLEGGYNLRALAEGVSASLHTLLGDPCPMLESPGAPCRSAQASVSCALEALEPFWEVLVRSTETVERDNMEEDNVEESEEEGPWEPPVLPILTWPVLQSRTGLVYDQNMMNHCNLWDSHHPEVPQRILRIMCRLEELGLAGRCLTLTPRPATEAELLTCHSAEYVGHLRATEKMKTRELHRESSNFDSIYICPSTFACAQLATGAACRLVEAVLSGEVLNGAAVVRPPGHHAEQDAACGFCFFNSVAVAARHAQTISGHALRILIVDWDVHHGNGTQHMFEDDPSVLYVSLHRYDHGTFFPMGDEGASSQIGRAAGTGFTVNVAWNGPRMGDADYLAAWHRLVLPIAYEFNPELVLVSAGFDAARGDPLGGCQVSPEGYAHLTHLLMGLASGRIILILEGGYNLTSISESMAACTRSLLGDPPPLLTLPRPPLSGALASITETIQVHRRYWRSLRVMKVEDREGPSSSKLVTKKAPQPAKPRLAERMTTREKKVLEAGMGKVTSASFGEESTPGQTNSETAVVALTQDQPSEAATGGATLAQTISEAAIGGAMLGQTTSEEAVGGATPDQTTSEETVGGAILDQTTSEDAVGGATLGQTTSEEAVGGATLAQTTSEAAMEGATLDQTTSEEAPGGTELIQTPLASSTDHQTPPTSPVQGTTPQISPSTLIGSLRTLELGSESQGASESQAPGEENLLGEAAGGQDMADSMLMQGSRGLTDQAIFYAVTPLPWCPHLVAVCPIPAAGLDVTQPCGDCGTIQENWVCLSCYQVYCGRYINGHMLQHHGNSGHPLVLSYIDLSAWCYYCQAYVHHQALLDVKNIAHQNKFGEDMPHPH

Histone deacetylase 7 = target: T2, Histone deacetylase 7 (Homo sapiens, UniProt Q8WUI4); assay: Inhibition of recombinant full-length human HDAC7 using FAM-RHKK (trifluor-Ac)-NH2 as substrate by electrophoretic mobility shift assay
T2 sequence (Q8WUI4 whole entry): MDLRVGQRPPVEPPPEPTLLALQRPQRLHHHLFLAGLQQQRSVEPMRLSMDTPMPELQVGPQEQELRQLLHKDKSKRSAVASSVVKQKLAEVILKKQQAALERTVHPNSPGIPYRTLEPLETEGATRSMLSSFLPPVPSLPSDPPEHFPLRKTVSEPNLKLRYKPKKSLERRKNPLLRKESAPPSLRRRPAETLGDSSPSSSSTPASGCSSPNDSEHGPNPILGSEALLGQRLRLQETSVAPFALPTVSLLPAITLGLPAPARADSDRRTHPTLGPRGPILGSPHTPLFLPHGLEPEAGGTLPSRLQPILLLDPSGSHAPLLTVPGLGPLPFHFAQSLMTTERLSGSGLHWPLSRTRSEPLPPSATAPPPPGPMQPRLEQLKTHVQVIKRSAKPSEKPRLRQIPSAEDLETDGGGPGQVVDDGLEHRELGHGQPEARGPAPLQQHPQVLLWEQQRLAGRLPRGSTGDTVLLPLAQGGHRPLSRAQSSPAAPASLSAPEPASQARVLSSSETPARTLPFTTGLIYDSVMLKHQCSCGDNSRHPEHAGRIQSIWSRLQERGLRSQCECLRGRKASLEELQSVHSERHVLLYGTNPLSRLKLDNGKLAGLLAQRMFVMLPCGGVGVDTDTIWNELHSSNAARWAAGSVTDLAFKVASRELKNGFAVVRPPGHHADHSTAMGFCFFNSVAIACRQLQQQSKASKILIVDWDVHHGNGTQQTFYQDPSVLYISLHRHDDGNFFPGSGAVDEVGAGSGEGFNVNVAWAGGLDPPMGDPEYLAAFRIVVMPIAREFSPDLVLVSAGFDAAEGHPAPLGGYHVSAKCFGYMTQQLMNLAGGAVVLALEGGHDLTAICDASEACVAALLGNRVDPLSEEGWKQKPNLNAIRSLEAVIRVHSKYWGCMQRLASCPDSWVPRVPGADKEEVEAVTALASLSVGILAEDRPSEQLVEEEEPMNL

Histone deacetylase 8 = target: T3, Histone deacetylase 8 (Homo sapiens, UniProt Q9BY41); assay: Inhibition of recombinant full-length human HDAC8 using FAM-RHKK(Ac)-NH2 as substrate by electrophoretic mobility shift assay
T3 sequence (Q9BY41 whole entry): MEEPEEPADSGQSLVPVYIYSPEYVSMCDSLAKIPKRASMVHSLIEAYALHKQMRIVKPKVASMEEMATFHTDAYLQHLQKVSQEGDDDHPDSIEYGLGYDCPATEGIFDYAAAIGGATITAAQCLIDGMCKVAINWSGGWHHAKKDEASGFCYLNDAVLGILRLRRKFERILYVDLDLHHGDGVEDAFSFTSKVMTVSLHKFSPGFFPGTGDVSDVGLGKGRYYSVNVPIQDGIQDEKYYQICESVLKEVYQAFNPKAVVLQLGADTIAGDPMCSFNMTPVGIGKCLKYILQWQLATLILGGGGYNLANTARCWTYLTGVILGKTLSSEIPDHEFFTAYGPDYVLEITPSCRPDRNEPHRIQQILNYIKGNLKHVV

Histone deacetylase 9 = Histone deacetylase 9 (Homo sapiens, UniProt Q9UKV0); assay: Inhibition of recombinant full-length human HDAC9 using FAM-RHKK (trifluor-Ac)-NH2 as substrate by electrophoretic mobility shift assay
[2] = target: T4, Polyamine deacetylase HDAC10 (Homo sapiens, UniProt Q969S8); assay: Inhibition of recombinant full-length human HDAC10 using FITC-H3K27(Ac)-NH2 as substrate by electrophoretic mobility shift assay
T4 sequence (Q969S8 whole entry): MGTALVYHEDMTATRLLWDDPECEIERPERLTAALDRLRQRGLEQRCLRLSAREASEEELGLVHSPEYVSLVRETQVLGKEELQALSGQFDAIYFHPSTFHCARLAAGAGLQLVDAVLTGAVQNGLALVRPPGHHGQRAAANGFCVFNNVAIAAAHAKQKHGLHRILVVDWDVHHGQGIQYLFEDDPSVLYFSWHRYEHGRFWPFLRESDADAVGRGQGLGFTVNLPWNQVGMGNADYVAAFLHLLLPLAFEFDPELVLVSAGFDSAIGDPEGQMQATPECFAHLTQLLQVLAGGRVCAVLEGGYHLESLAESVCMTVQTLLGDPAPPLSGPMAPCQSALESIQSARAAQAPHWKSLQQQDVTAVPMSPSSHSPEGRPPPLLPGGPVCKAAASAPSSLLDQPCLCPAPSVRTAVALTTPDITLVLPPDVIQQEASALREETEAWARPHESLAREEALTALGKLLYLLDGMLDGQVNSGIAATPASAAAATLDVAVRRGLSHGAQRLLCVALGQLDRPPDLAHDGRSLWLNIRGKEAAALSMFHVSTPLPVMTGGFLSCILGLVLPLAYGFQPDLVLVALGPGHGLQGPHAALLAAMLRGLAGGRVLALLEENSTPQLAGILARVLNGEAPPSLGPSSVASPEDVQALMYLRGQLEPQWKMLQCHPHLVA

Histone deacetylase 11 = target: T5, Histone deacetylase 11 (Homo sapiens, UniProt Q96DB2); assay: Inhibition of recombinant full-length human HDAC11 using FAM-RHKK (trifluor-Ac)-NH2 as substrate by electrophoretic mobility shift assay
T5 sequence (Q96DB2 whole entry): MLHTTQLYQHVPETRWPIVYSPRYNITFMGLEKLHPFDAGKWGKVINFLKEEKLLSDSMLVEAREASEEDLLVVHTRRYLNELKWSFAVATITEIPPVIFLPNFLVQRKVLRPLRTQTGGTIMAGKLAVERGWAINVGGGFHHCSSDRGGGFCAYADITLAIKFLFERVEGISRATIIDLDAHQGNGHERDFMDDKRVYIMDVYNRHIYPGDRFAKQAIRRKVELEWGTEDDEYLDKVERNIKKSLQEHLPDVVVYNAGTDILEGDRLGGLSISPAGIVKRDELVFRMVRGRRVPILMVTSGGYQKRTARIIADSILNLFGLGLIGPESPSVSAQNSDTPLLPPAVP

Histone deacetylase 3 = Histone deacetylase 3 (Homo sapiens, UniProt O15379)
Description: Inhibition of recombinant full-length human HDAC3 using FAM-RHKK(Ac)-NH2 as substrate by electrophoretic mobility shift assay

Histone deacetylase 4 = Histone deacetylase 4 (Homo sapiens, UniProt P56524); assay: Inhibition of recombinant full-length human HDAC4 using FAM-RHKK (trifluor-Ac)-NH2 as substrate by electrophoretic mobility shift assay
Histone deacetylase 5 = Histone deacetylase 5 (Homo sapiens, UniProt Q9UQL6); assay: Inhibition of recombinant full-length human HDAC5 using FAM-RHKK (trifluor-Ac)-NH2 as substrate by electrophoretic mobility shift assay
Sequence of Histone deacetylase 5 (Q9UQL6 whole entry): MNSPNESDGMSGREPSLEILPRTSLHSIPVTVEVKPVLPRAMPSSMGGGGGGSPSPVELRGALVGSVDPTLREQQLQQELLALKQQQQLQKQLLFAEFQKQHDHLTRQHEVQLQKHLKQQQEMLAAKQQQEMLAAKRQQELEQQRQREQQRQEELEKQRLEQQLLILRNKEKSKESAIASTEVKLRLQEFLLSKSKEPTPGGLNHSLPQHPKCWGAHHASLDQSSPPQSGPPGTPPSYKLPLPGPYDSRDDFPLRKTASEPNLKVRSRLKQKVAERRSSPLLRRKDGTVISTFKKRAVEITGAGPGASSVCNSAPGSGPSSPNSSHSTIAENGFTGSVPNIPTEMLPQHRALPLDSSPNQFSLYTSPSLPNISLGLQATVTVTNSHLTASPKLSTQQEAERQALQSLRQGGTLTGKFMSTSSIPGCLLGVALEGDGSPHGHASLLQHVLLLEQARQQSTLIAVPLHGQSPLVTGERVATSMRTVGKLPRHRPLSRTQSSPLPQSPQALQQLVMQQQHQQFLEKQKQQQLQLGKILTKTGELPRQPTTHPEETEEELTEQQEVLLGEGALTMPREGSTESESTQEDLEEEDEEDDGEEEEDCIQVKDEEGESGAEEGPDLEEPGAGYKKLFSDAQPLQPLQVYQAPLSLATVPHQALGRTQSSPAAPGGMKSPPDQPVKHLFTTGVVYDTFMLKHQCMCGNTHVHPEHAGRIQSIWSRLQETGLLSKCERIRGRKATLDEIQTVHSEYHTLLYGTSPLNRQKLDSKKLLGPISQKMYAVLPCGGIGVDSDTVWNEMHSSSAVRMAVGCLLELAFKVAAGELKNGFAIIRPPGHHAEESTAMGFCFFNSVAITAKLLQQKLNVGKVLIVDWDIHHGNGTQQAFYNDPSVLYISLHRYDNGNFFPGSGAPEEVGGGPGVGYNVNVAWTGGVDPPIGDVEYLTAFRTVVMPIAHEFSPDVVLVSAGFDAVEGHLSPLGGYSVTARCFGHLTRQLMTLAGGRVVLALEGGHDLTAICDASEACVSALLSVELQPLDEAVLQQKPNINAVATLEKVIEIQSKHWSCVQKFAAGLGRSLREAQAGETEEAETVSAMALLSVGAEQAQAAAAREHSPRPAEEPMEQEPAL

Sequence of Histone deacetylase 2 (Q92769 whole entry): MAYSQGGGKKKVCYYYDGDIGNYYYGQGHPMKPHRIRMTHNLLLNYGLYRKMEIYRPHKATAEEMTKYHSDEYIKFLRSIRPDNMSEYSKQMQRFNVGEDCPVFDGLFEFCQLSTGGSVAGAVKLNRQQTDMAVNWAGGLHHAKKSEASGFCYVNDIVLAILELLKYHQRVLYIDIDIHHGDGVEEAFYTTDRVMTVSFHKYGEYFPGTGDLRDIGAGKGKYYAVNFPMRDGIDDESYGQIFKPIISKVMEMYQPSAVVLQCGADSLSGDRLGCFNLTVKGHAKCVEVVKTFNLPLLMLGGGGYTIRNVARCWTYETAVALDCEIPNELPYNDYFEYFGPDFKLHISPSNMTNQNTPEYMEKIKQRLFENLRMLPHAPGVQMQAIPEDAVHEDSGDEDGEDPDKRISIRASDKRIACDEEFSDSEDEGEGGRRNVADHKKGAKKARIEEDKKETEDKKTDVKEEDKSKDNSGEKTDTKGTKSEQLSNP
Sequence of Histone deacetylase 4 (P56524 whole entry): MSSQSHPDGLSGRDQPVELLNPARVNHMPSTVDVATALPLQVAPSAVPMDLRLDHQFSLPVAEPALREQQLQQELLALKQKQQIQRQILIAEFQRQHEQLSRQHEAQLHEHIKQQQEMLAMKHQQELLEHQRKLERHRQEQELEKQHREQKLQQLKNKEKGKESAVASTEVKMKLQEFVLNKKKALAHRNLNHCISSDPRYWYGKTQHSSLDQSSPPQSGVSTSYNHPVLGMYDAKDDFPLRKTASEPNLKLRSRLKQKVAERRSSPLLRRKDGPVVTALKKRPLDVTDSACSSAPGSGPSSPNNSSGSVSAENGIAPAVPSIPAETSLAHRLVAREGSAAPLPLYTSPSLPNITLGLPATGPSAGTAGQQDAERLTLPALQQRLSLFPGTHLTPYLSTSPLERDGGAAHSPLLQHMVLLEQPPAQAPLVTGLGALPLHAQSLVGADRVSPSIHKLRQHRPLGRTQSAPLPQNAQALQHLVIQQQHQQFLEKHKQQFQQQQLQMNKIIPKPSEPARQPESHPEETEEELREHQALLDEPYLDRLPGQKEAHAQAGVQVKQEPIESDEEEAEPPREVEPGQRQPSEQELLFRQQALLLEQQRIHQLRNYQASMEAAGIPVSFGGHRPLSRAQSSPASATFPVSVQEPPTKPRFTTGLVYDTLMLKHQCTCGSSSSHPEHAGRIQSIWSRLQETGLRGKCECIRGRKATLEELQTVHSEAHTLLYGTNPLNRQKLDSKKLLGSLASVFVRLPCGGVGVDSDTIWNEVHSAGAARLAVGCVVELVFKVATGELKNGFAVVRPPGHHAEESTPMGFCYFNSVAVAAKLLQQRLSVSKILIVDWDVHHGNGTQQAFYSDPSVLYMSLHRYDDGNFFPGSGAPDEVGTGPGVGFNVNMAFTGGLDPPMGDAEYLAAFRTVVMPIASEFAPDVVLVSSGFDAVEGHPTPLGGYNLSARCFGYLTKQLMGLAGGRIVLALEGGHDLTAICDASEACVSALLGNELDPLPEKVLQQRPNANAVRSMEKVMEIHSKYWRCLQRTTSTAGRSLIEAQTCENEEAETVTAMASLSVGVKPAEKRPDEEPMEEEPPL
Sequence of Histone deacetylase 9 (Q9UKV0 whole entry): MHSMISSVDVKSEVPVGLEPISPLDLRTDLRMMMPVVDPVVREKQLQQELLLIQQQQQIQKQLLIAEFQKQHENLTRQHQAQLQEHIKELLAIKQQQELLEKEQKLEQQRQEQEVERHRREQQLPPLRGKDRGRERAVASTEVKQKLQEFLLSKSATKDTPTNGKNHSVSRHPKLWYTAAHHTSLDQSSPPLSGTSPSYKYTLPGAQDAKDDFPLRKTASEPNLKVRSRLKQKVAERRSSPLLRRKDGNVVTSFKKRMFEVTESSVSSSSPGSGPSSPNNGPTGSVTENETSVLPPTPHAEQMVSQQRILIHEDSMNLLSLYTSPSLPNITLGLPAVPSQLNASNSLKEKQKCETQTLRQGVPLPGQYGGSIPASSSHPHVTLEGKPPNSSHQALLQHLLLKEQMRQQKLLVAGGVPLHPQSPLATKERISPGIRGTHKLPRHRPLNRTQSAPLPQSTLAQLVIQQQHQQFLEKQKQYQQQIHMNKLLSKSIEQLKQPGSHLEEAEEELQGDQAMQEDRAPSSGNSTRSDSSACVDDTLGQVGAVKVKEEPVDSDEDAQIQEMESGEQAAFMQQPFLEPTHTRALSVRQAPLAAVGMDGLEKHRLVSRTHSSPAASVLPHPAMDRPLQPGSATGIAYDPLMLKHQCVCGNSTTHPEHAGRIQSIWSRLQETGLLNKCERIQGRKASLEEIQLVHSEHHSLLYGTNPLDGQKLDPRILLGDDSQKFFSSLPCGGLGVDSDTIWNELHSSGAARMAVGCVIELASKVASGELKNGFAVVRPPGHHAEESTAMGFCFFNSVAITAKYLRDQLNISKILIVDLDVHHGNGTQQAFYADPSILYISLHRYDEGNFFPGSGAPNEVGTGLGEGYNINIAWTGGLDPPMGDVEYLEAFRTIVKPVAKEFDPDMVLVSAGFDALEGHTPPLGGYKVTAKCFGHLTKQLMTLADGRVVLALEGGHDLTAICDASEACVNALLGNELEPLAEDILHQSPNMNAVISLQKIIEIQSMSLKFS
Sequence of Histone deacetylase 1 (Q13547 whole entry): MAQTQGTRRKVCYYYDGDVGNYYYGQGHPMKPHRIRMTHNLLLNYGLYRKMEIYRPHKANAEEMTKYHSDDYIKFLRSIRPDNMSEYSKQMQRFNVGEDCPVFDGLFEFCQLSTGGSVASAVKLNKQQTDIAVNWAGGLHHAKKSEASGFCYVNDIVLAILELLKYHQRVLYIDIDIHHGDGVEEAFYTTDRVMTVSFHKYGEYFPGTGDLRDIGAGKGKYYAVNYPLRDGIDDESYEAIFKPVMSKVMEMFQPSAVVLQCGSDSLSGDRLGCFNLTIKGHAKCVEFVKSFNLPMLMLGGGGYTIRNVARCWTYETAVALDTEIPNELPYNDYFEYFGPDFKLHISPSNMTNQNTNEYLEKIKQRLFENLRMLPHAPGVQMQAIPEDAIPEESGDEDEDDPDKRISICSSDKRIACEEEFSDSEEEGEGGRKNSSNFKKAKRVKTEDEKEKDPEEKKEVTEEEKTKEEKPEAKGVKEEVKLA
Sequence of Histone deacetylase 3 (O15379 whole entry): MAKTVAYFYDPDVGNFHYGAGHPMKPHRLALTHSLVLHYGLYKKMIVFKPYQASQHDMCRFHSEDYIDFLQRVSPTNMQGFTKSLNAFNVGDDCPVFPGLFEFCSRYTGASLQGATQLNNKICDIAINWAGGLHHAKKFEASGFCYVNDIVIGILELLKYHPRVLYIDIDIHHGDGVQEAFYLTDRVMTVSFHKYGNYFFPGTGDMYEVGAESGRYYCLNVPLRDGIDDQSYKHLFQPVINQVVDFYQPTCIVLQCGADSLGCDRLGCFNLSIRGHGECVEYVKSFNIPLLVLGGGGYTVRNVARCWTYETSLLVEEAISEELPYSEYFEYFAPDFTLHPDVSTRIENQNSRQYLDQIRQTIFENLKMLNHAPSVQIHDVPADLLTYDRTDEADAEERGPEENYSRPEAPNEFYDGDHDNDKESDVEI

Row | SMILES | IC50 (Histone deacetylase 1) | IC50 (Histone deacetylase 2) | IC50 [1] | IC50 (Histone deacetylase 7) | IC50 (Histone deacetylase 8) | IC50 (Histone deacetylase 9) | IC50 [2] | IC50 (Histone deacetylase 11) | IC50 (Histone deacetylase 3) | IC50 (Histone deacetylase 4) | IC50 (Histone deacetylase 5)
1 | O=C(NCC12C[C@H]3C[C@@H](C1)C[C@@H](C2)C3)c1ccc2c(ccn2Cc2ccc(C(=O)NO)c(Cl)c2)c1 | > 10 µM | > 10 µM | 0.22 µM | 0.57 µM | 0.41 µM | 4.53 µM | 9.05 µM | 0.14 µM | – | – | –
2 | COc1cc(CN(C)CCC23CC4CC(CC(C4)C2)C3)ccc1C(=O)NO | – | – | > 10 µM | – | – | – | – | 4.21 µM | – | – | –
3 | O=C(NCC12C[C@H]3C[C@@H](C1)C[C@@H](C2)C3)c1ccc2c(ccn2Cc2ccc(C(=O)NO)c(F)c2)c1 | – | 3.4 µM | – | – | – | – | 0.6 µM | 0.079 µM | 0.18 µM | – | –
4 | O=C(NCC12C[C@H]3C[C@@H](C1)C[C@@H](C2)C3)c1ccc2c(ccn2Cc2ccc(C(=O)NO)c(Br)c2)c1 | 7.32 µM | > 10 µM | – | – | – | 9.31 µM | 8.97 µM | – | 2.23 µM | – | –
5 | O=C(NO)c1ccc(Cn2ccc3cc(C(=O)NCC45C[C@H]6C[C@@H](C4)C[C@@H](C5)C6)ccc32)cc1 | 0.88 µM | 1.9 µM | – | – | 1.95 µM | 5.25 µM | > 10 µM | 0.48 µM | 0.98 µM | 1.09 µM | > 10 µM
6 | COc1cc(C(=O)NO)ccc1Cn1ccc2cc(C(=O)NCC34C[C@H]5C[C@@H](C3)C[C@@H](C4)C5)ccc21 | > 10 µM | > 10 µM | 0.64 µM | – | 0.16 µM | 2.84 µM | > 10 µM | 0.093 µM | 1.33 µM | 3.04 µM | 1.88 µM
7 | CCCNNC(=O)c1ccc(Cn2ccc3cc(C(=O)NCC45C[C@H]6C[C@@H](C4)C[C@@H](C5)C6)ccc32)cc1 | – | – | – | – | – | – | – | 2.61 µM | – | – | –
8 | COc1cc(CN(C)CC23CC4CC(CC(C4)C2)C3)ccc1C(=O)NO | – | – | > 10 µM | – | – | – | – | > 10 µM | – | – | –
9 | COc1cc(C(=O)NCC23CC4CC(CC(C4)C2)C3)ccc1C(=O)NO | – | – | – | – | – | – | – | 8.89 µM | – | – | –
10 | O=C(NCC12C[C@H]3C[C@@H](C1)C[C@@H](C2)C3)c1ccc2c(ccn2Cc2ccc(C(=O)NO)c(O)c2)c1 | > 10 µM | > 10 µM | – | – | – | – | > 10 µM | – | 8.12 µM | – | 7.25 µM
11 | CCOc1cc(Cn2ccc3cc(C(=O)NCC45C[C@H]6C[C@@H](C4)C[C@@H](C5)C6)ccc32)ccc1C(=O)NO | > 10 µM | > 10 µM | – | 4.03 µM | > 10 µM | > 10 µM | > 10 µM | 0.25 µM | – | > 10 µM | –
12 | Cc1cc(Cn2ccc3cc(C(=O)NCC45C[C@H]6C[C@@H](C4)C[C@@H](C5)C6)ccc32)ccc1C(=O)NO | > 10 µM | > 10 µM | – | – | 2.06 µM | – | > 10 µM | 0.35 µM | > 10 µM | > 10 µM | –
13 | O=C(NO)c1ccc(Cn2ccc3cc(C(=O)NCC45C[C@H]6C[C@@H](C4)C[C@@H](C5)C6)ccc32)c(F)c1 | 0.19 µM | 1.02 µM | 0.008 µM | – | – | 2.09 µM | 0.23 µM | – | 0.69 µM | 1.12 µM | > 10 µM

— ChEMBL document CHEMBL5375948, “Development and Pharmacochemical Characterization Discover a Novel Brain-Permeable HDAC11-Selective Inhibitor with Therapeutic Potential by Regulating Neuroinflammation in Mice” (J Med Chem, 2023)
